Measurements as given in ChEMBL document CHEMBL3046715, “In vivo evaluation of substituted 3-phenyl,7-methoxy-benzopyrans as modified estrogens” (2010).

Key:
Type in all cases: functional
Rattus norvegicus [1] = test: Estrogen agonistic activity in immature Rattus norvegicus Sprague-Dawley (rat) assessed as uterine weight at 0.02 mg/kg, po qd for 3 days (reference value: 14 +/- 1.3 to 22.23 +/- 1.2 mg)
Rattus norvegicus [2] = test: Estrogen agonistic activity in immature Rattus norvegicus Sprague-Dawley (rat) assessed as gain in uterine weight at 10 mg/kg, po qd for 3 days
Rattus norvegicus [3] = test: Estrogen antagonistic activity in immature Rattus norvegicus Sprague-Dawley (rat) assessed as inhibition of ethynylestradiol-induced increase in uterine weight at 10 mg/kg, po qd for 3 days; settings: 72 h

| Structure (SMILES) | Activity (Rattus norvegicus [1]) | Activity (Rattus norvegicus [2]) | inhibition in vivo at 10 mg/kg (Rattus norvegicus [3]) |
| --- | --- | --- | --- |
| C#C[C@]1(O)CC[C@H]2[C@@H]3CCc4cc(O)ccc4[C@H]3CC[C@@]21C [ETHINYL ESTRADIOL] | 85 mg | 480% |  |
| COc1ccc(C2COc3cc(OCCCC(C)(C)O)ccc3C2)cc1 (configuration not stated) |  | 31% | 6% |
| C=C1CC[C@H](O)C/C1=C/C=C1\CCC[C@]2(C)[C@@H]([C@H](C)CCCC(C)C)CC[C@@H]12 [CHOLECALCIFEROL] |  | 82% | 39% |
| O=C(c1ccc(OCCN2CCCCC2)cc1)c1c(-c2ccc(O)cc2)sc2cc(O)ccc12 [RALOXIFENE] |  | 90% | 57% |
| CCC(O)(CC)CCCOc1ccc2c(c1)OCC(c1ccc(OC)cc1)C2 (configuration not stated) |  | 48% | 3% |
| COc1ccc2c(c1)OC(C)(C)C(c1ccccc1)C2c1ccc(OCCN2CCCC2)cc1 (configuration not stated) [ORMELOXIFENE] |  | 156% | 67% |
